# Data from US8445492B2, “Method for inhibiting growth of cancer cells and cell telomere and diseases of cell proliferation by using heteroannelated anthraquinone derivative compounds” (National Defense Medical Center, priority 2008, dated 2013).
# Where two headings read alike, the source gives them in different places.
# Key:
# RPMI-8226 [1] = test system: RPMI-8226
# K-562 [2] = test system: K-562
# RPMI-8226 [3] = assay: NCI DTP in-vitro dose response, Leukemia
# MOLT-4 [4] = test system: MOLT-4
# MOLT-4 [5] = assay: NCI DTP in-vitro dose response, Leukemia
# HL-60(TB) [6] = assay: NCI DTP in-vitro dose response, Leukemia
# CCRF-CEM [7] = test system: CCRF-CEM
# K-562 [8] = assay: NCI DTP in-vitro dose response, Leukemia
# HL-60(TB) [9] = test system: HL-60(TB)
# CCRF-CEM [10] = assay: NCI DTP in-vitro dose response, Leukemia
# NCI-H23 [11] = test system: NCI-H23
# HOP-92 [12] = test system: HOP-92
# HOP-62 [13] = test system: HOP-62
# NCI-H23 [14] = test system: NCI-H23; remark: listed apart in the source
# EKVX [15] = test system: EKVX
# A549/ATCC [16] = test system: A549/ATCC
# NCI-H226 [17] = test system: NCI-H226
# HOP-92 [18] = test system: HOP-92; remark: listed apart in the source
# NCI-H226 [19] = test system: NCI-H226; remark: listed apart in the source
# NCI-H522 [20] = test system: NCI-H522
# NCI-H460 [21] = test system: NCI-H460
# NCI-H522 [22] = test system: NCI-H522; remark: listed apart in the source
# NCI-H460 [23] = test system: NCI-H460; remark: listed apart in the source
# HOP-62 [24] = test system: HOP-62; remark: listed apart in the source
# A549/ATCC [25] = test system: A549/ATCC; remark: listed apart in the source
# EKVX [26] = test system: EKVX; remark: listed apart in the source
compound,measurement,setting,value
O=C1c2ccccc2C(=O)c2c1ccc1nccnc21 [TABLE 5-1],GI50,RPMI-8226 [1],1.61 µM
same,TGI,RPMI-8226 [1],>1.00E−4
same,Percent Growth,RPMI-8226 [1]; Log10 Concentration −4.0,12%
same,Percent Growth,RPMI-8226 [1]; Log10 Concentration −5.0,30%
same,Percent Growth,RPMI-8226 [1]; Log10 Concentration −6.0,55%
same,Percent Growth,RPMI-8226 [1]; Log10 Concentration −7.0,81%
same,Percent Growth,RPMI-8226 [1]; Log10 Concentration −8.0,90%
same,GI50,K-562 [2],0.0683 µM
same,TGI,K-562 [2],>1.00E−4
same,Percent Growth,K-562 [2]; Log10 Concentration −4.0,10%
same,Percent Growth,K-562 [2]; Log10 Concentration −5.0,17%
same,Percent Growth,K-562 [2]; Log10 Concentration −6.0,30%
same,Percent Growth,K-562 [2]; Log10 Concentration −7.0,41%
same,Percent Growth,K-562 [2]; Log10 Concentration −8.0,94%
same,CC50,RPMI-8226 [3],> 100 µM
same,GI50,MOLT-4 [4],3.65 µM
same,TGI,MOLT-4 [4],>1.00E−4
same,Percent Growth,MOLT-4 [4]; Log10 Concentration −4.0,4%
same,Percent Growth,MOLT-4 [4]; Log10 Concentration −5.0,33%
same,Percent Growth,MOLT-4 [4]; Log10 Concentration −6.0,72%
same,Percent Growth,MOLT-4 [4]; Log10 Concentration −7.0,81%
same,Percent Growth,MOLT-4 [4]; Log10 Concentration −8.0,89%
same,CC50,MOLT-4 [5],> 100 µM
same,CC50,HL-60(TB) [6],83.7 µM
same,GI50,CCRF-CEM [7],2.46 µM
same,TGI,CCRF-CEM [7],>1.00E−4
same,Percent Growth,CCRF-CEM [7]; Log10 Concentration −4.0,20%
same,Percent Growth,CCRF-CEM [7]; Log10 Concentration −5.0,22%
same,Percent Growth,CCRF-CEM [7]; Log10 Concentration −6.0,68%
same,Percent Growth,CCRF-CEM [7]; Log10 Concentration −7.0,91%
same,Percent Growth,CCRF-CEM [7]; Log10 Concentration −8.0,90%
same,CC50,K-562 [8],> 100 µM
same,GI50,HL-60(TB) [9],0.677 µM
same,TGI,HL-60(TB) [9],1.15E−5
same,Percent Growth,HL-60(TB) [9]; Log10 Concentration −4.0,−54%
same,Percent Growth,HL-60(TB) [9]; Log10 Concentration −5.0,3%
same,Percent Growth,HL-60(TB) [9]; Log10 Concentration −6.0,47%
same,Percent Growth,HL-60(TB) [9]; Log10 Concentration −7.0,67%
same,Percent Growth,HL-60(TB) [9]; Log10 Concentration −8.0,83%
same,CC50,CCRF-CEM [10],> 100 µM
O=C1c2ccccc2C(=O)c2c1ccc1nccnc21 [TABLE 5-2],CC50,NCI-H23 [11],> 100 µM
same,GI50,HOP-92 [12],22.5 µM
same,TGI,HOP-92 [12],>1.00E−4
same,Percent Growth,HOP-92 [12]; Log10 Concentration −4.0,8%
same,Percent Growth,HOP-92 [12]; Log10 Concentration −5.0,73%
same,Percent Growth,HOP-92 [12]; Log10 Concentration −6.0,78%
same,Percent Growth,HOP-92 [12]; Log10 Concentration −7.0,83%
same,Percent Growth,HOP-92 [12]; Log10 Concentration −8.0,95%
same,GI50,HOP-62 [13],5.64 µM
same,TGI,HOP-62 [13],>1.00E−4
same,Percent Growth,HOP-62 [13]; Log10 Concentration −4.0,3%
same,Percent Growth,HOP-62 [13]; Log10 Concentration −5.0,40%
same,Percent Growth,HOP-62 [13]; Log10 Concentration −6.0,81%
same,Percent Growth,HOP-62 [13]; Log10 Concentration −7.0,82%
same,Percent Growth,HOP-62 [13]; Log10 Concentration −8.0,92%
same,GI50,NCI-H23 [14],12 µM
same,TGI,NCI-H23 [14],7.03E−5
same,Percent Growth,NCI-H23 [14]; Log10 Concentration −4.0,−10%
same,Percent Growth,NCI-H23 [14]; Log10 Concentration −5.0,55%
same,Percent Growth,NCI-H23 [14]; Log10 Concentration −6.0,84%
same,Percent Growth,NCI-H23 [14]; Log10 Concentration −7.0,87%
same,Percent Growth,NCI-H23 [14]; Log10 Concentration −8.0,92%
same,CC50,EKVX [15],> 100 µM
same,GI50,A549/ATCC [16],4.53 µM
same,TGI,A549/ATCC [16],>1.00E−4
same,Percent Growth,A549/ATCC [16]; Log10 Concentration −4.0,3%
same,Percent Growth,A549/ATCC [16]; Log10 Concentration −5.0,36%
same,Percent Growth,A549/ATCC [16]; Log10 Concentration −6.0,77%
same,Percent Growth,A549/ATCC [16]; Log10 Concentration −7.0,95%
same,Percent Growth,A549/ATCC [16]; Log10 Concentration −8.0,93%
same,CC50,NCI-H226 [17],> 100 µM
same,CC50,HOP-92 [18],> 100 µM
same,GI50,NCI-H226 [19],16.6 µM
same,TGI,NCI-H226 [19],9.52E−5
same,Percent Growth,NCI-H226 [19]; Log10 Concentration −4.0,−1%
same,Percent Growth,NCI-H226 [19]; Log10 Concentration −5.0,64%
same,Percent Growth,NCI-H226 [19]; Log10 Concentration −6.0,73%
same,Percent Growth,NCI-H226 [19]; Log10 Concentration −7.0,81%
same,Percent Growth,NCI-H226 [19]; Log10 Concentration −8.0,86%
same,GI50,NCI-H522 [20],4.64 µM
same,TGI,NCI-H522 [20],3.25E−5
same,Percent Growth,NCI-H522 [20]; Log10 Concentration −4.0,−33%
same,Percent Growth,NCI-H522 [20]; Log10 Concentration −5.0,35%
same,Percent Growth,NCI-H522 [20]; Log10 Concentration −6.0,81%
same,Percent Growth,NCI-H522 [20]; Log10 Concentration −7.0,86%
same,Percent Growth,NCI-H522 [20]; Log10 Concentration −8.0,89%
same,GI50,NCI-H460 [21],2.01 µM
same,TGI,NCI-H460 [21],2.69E−5
same,Percent Growth,NCI-H460 [21]; Log10 Concentration −4.0,−22%
same,Percent Growth,NCI-H460 [21]; Log10 Concentration −5.0,17%
same,Percent Growth,NCI-H460 [21]; Log10 Concentration −6.0,65%
same,Percent Growth,NCI-H460 [21]; Log10 Concentration −7.0,95%
same,Percent Growth,NCI-H460 [21]; Log10 Concentration −8.0,98%
same,CC50,NCI-H522 [22],> 100 µM
same,CC50,NCI-H460 [23],> 100 µM
same,CC50,HOP-62 [24],> 100 µM
same,CC50,A549/ATCC [25],> 100 µM
same,GI50,EKVX [26],3.45 µM
same,TGI,EKVX [26],7.21E−5
same,Percent Growth,EKVX [26]; Log10 Concentration −4.0,−4%
same,Percent Growth,EKVX [26]; Log10 Concentration −5.0,25%
same,Percent Growth,EKVX [26]; Log10 Concentration −6.0,79%
same,Percent Growth,EKVX [26]; Log10 Concentration −7.0,89%
same,Percent Growth,EKVX [26]; Log10 Concentration −8.0,101%
